pIC50: −log10 of the molar value.
Target: T1, human cathepsin S (CatS) (Homo sapiens, UniProt P25774)
T1 construct: made in house; host or cells: baculovirus system (insect cells)
Assay: Recombinant human cathepsin S (CatS) fluorogenic substrate inhibition assay
Type: biochemical
Details: recombinant human CatS, 10 μM Z-Valine-Valine-Arginine-AMC, pH 5.0; average of results obtained; read-out: CatS IC50
Experimental: Recombinant human cathepsin S (CatS) was expressed in the baculovirus system and purified in one step with a thiopropyl-sepharose column. […] The assay is run in 150 mM sodium acetate pH 5.0 containing 1.5 mM DTT and 150 mM NaCl. […] Measurements are taken every min for 20 min. The rate is calculated from the slope of the increase in fluorescence and the percent inhibition is calculated from this.

T1 sequence (P25774 115-331): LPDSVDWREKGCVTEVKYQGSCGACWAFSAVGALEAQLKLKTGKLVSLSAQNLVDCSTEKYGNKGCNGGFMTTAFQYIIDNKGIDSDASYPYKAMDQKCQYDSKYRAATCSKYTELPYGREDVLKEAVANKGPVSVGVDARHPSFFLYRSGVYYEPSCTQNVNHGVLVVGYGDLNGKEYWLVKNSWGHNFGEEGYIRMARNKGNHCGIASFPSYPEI

Row | Compound | pIC50
1 | Cc1coc(NCc2cc(-c3nn(CCCN4CCC(N5CCCC5=O)CC4)c4c3CN(S(C)(=O)=O)CC4)ccc2C(F)(F)F)n1 [Example 177, 1-{1-[3-(5-Methanesulfonyl-3-{3-[(4-methyl-oxazol-2-ylamino)-methyl]-4-trifluoromethyl-phenyl}-4,5,6,7-tetrahydro-pyrazolo[4,3-c]pyridin-1-yl)-propyl]-piperidin-4-yl}-pyrrolidin-2-one] | 5.78
2 | CS(=O)(=O)N1CCc2c(c(-c3ccc(C(F)(F)F)c(CNC=O)c3)nn2CC(O)CN2CCC(N3CCCC3=O)CC2)C1 (stereo not drawn) [Example 178, N-[5-(1-{2-Hydroxy-3-[4-(2-oxo-pyrrolidin-1-yl)-piperidin-1-yl]-propyl}-5-methanesulfonyl-4,5,6,7-tetrahydro-1H-pyrazolo[4,3-c]pyridin-3-yl)-2-trifluoromethyl-benzyl]-formamide] | 5.78
3 | CS(=O)(=O)N1CCc2c(c(-c3ccc(C(F)(F)F)c(CNCCN4CCCCC4)c3)nn2CC(O)CN2CCC(N3CCCC3=O)CC2)C1 (stereo not drawn) [Example 179, 1-{1-[2-Hydroxy-3-(5-methanesulfonyl-3-{3-[(2-piperidin-1-yl-ethylamino)-methyl]-4-trifluoromethyl-phenyl}-4,5,6,7-tetrahydro-pyrazolo[4,3-c]pyridin-1-yl)-propyl]-piperidin-4-yl}-pyrrolidin-2-one] | 5.20
4 | CN1CCN(CC(=O)NCc2cc(-c3nn(CCCN4CCC(N5CCCC5=O)CC4)c4c3CN(S(C)(=O)=O)CC4)ccc2C(F)(F)F)CC1 [Example 180, N-[5-(5-Methanesulfonyl-1-{3-[4-(2-oxo-pyrrolidin-1-yl)-piperidin-1-yl]-propyl}-4,5,6,7-tetrahydro-1H-pyrazolo[4,3-c]pyridin-3-yl)-2-trifluoromethyl-benzyl]-2-(4-methyl-piperazin-1-yl)-acetamide] | 5.43

Molecules with a higher pIC50, results first:

Row | pIC50 | Compound
5 | 5.88 | CS(=O)(=O)N1CCc2c(c(-c3ccc(C(F)(F)F)c(Cn4cnnn4)c3)nn2CCCN2CCC(N3CCCC3=O)CC2)C1 [Example 176, 1-(1-{3-[5-Methanesulfonyl-3-(3-tetrazol-1-ylmethyl-4-trifluoromethyl-phenyl)-4,5,6,7-tetrahydro-pyrazolo[4,3-c]pyridin-1-yl]-propyl}-piperidin-4-yl)-pyrrolidin-2-one]
6 | 5.82 | CN(C)CCC(=O)NCc1cc(-c2nn(CCCN3CCC(N4CCCC4=O)CC3)c3c2CN(S(C)(=O)=O)CC3)ccc1C(F)(F)F [Example 181, 3-Dimethylamino-N-[5-(5-methanesulfonyl-1-{3-[4-(2-oxo-pyrrolidin-1-yl)-piperidin-1-yl]-propyl}-4,5,6,7-tetrahydro-1H-pyrazolo[4,3-c]pyridin-3-yl)-2-trifluoromethyl-benzyl]-propionamide]
7 | 6.05 | CS(=O)(=O)N1CCc2c(c(-c3ccc(C(F)(F)F)c(CNC(=O)CN4CCCC4=O)c3)nn2CCCN2CCC(N3CCCC3=O)CC2)C1 [Example 182, N-[5-(5-Methanesulfonyl-1-{3-[4-(2-oxo-pyrrolidin-1-yl)-piperidin-1-yl]-propyl}-4,5,6,7-tetrahydro-1H-pyrazolo[4,3-c]pyridin-3-yl)-2-trifluoromethyl-benzyl]-2-(2-oxo-pyrrolidin-1-yl)-acetamide]
8 | 6.10 | CS(=O)(=O)N1CCc2c(c(-c3ccc(C(F)(F)F)c(CNC(=O)CN4CCCC4)c3)nn2CCCN2CCC(N3CCCC3=O)CC2)C1 [Example 183, N-[5-(5-Methanesulfonyl-1-{3-[4-(2-oxo-pyrrolidin-1-yl)-piperidin-1-yl]-propyl}-4,5,6,7-tetrahydro-1H-pyrazolo[4,3-c]pyridin-3-yl)-2-trifluoromethyl-benzyl]-2-pyrrolidin-1-yl-acetamide]
9 | 6.09 | CS(=O)(=O)N1CCc2c(c(-c3ccc(C(F)(F)F)c(CNC(=O)CN4CCC(O)C4)c3)nn2CCCN2CCC(N3CCCC3=O)CC2)C1 (stereo not drawn) [Example 184, 2-(3-Hydroxy-pyrrolidin-1-yl)-N-[5-(5-methanesulfonyl-1-{3-[4-(2-oxo-pyrrolidin-1-yl)-piperidin-1-yl]-propyl}-4,5,6,7-tetrahydro-1H-pyrazolo[4,3-c]pyridin-3-yl)-2-trifluoromethyl-benzyl]-acetamide]
